What was measured:
[1] = statement in discussion; ref Cierniewski et al., 2012; cited from earlier work
From the text: Thymosin beta 4 is normally found in the cytosol and also in the nucleus of cells but lacks a signal sequence for exocytosis. It is unclear whether the high concentrations found in extracellular fluids, is due to active secretion of the peptide or secondary to degranulation of inflammatory cells or cell membrane rupture ([Watts et al., 1990]; [Huff et al., 2001]). TB4 is water soluble and rapidly internalized by endothelial cells in vitro where it binds to actin and participates in the dynamics of the cytoskeleton ([Cierniewski et al., 2012]). At very high concentrations there is also some bin ...

[2] = test system: global myocardial ischemia-reperfusion injury; assay: Cardiac 15O-water PET, myocardial blood flow; assay type: in vivo; conditions: pig; 25 h post-reperfusion; n = 4; mean ± SD; p = 0.86 vs control
Protocol: (§1) The lung was displaced and the pericardium opened. […] Blood lactate levels were monitored to ensure adequate perfusion. […] After weaning, the animals were decannulated. […] The thoracotomy wound was closed in three layers.
The pigs underwent cardiac PET scans 25–26 h post-reperfusion to determine MBF during rest and adenosine stress. PET studies were performed with ECAT EXACT HR+ scanner (Siemens-CTI, Knoxville, TN, USA). Myocardial perfusion was evaluated by PET with ^15O-radiolabeled water (808 ± 129 MBq) both at rest and during intravenous adenosine stress (200 μg/kg/min). The acquisition frames were as follows: 14 × 5 s, 3 × 10 s, 3 × 20 s, and 4 × 30 s (total duration 4 min 40 s). The acquired PET data were reconstructed in 2D mode with an iterative reconstruction algorithm OSEM using six iteration and 16 subsets in the reconstruction. The transaxial field of view (35 cm) was reconstructed in a 128 × 128 matrix, yielding a pixel size of 2.57 mm × 2.57 mm. The measurements were corrected for scatter, random counts, and dead time. The device produces 63 axial planes with a slice thickness of 2.43 mm. Global myocardial perfusion (ml/g/min) was measured using Carimas 2 software (Turku PET Centre, Turku, Finland^1).

[3] = after intraperitoneal administration; ref Mora et al., 1997; cited from earlier work
Protocol: The preferred dosing range of TB4 seems to be 2–12 mg/kg both when using single and repeated strategies. […] We wanted to condition the heart before the operation and also affect the immediate post-operative reperfusion period and gave the animals two doses of TB4. Under physiological conditions, concentrations of the peptide in plasma and se ...

[4] = test system: citrated whole blood; assay: Rotem thromboelastometry in vitro (EXTEM, INTEM, FIBTEM); design: species or system pig; conditions: for maximum clot firmness, FIBTEM: 1 h room temperature, platelets inhibited, three animals, mean ± SD
Protocol: Rotem®thromboelastometry (Tem Innovations GmbH, Basel, Switzerland) analysis was performed in vitro on blood samples from three blood-donor animals. TB4 was added to citrated whole blood to achieve two different concentrations (0.1 mM and 1 mM) and incubated at room temperature for 1 h. Untreated blood samples served as controls. The samples were analyzed and three parameters were drawn from the results at 60 min: Maximum clot firmness (stability of the blood clot), clotting time (time to clot formation), and maximum lysis of the blood clot. Assays used were EXTEM, INTEM, and FIBTEM. EXTEM measures the activity of the extrinsic pathway with tissue factor activation and INTEM of the intrinsic pathway with contact activation. FIBTEM is used for the assessment of fibrinogen status by complete platelet inhibition.

[5] = test system: global myocardial ischemia-reperfusion injury; assay: Cardiomyocyte apoptosis by TUNEL after CPB and aortic cross-clamping; assay type: in vivo; conditions: pig; TB4 6 mg/kg i.v. twice; 30 h post-reperfusion; mean ± SD; p = 0.20 vs other group
Protocol: as §1
Transmural tissue samples from the left and right ventricles were collected and fixed in formalin. Hematoxylin and eosin staining was performed for general histological analysis. Cardiomyocyte apoptosis was determined by terminal transferase nick end-labeling assay (TUNEL) as previously described ([Gavrieli et al., 1992]; [Saraste et al., 1997]). Positive apoptotic nuclei were counted over an ocular grid and presented as a percentage of total cardiomyocyte number in 10 randomly selected microscopic visual high power (×40) fields by an investigator blinded to group assignments.

[6] = test system: global myocardial ischemia-reperfusion injury; conditions: pig, TB4 6 mg/kg i.v. twice, n = 4, mean ± SD
Protocol: The pigs were pre-anesthetized with an intramuscular injection of 100 mg xylazin (Rompun vet, Bayer Animal Health GmbH, Leverkusen, Germany) and 25 mg midazolam (Midazolam Hameln, Hameln pharmaceuticals GmbH, Hameln, Germany). A peripheral ear vein was cannulated and the animals were medicated with 20 mg boluses of propofol (PropofolLipuro, B. Braun Melsungen AG, Melsungen, Germany) and 150 μg phentanyl (Fentanyl-Hameln, Hameln pharmaceuticals GmbH, Hameln, Germany) and were then intubated and connected to a respirator (Dräger Oxylog 3000, Drägerwerk AG, Lübeck, Germany). The respiratory rate was set to 18–22 times/min with a tidal volume of 8–10 ml/kg using 40% oxygen. Blood gases were monitored to ensure adequate ventilation (i-STAT, Abbott Laboratories, Abbott Park, IL, USA). Anesthesia was maintained with a continuous infusion of propofol 15–30 mg/kg/h, phentanyl 1.5 μg/kg/h and midazolam 100 μg/kg/h. Preoperatively and every 8 h thereafter the animals received antibiotic prophylaxis (Cefuroxime 750 mg, Orion Pharma, Espoo, Finland). Before the heart was cannulated 10000 IU of heparin (Heparin, LEO Pharma, Ballerup, Denmark) was given as a bolus and the dose was repeated every 30 min during extracorporeal circulation. […]
The pigs were placed in a left lateral decubitus position and the chest was shaved and disinfected. […] Blood lactate levels were monitored to ensure adequate perfusion. […]

[7] = Serum TB4 concentration by EIA after intravenous infusion; conditions: pig, 6 mg/kg
Protocol: The pigs were pre-anesthetized with an intramuscular injection of 100 mg xylazin (Rompun vet, Bayer Animal Health GmbH, Leverkusen, Germany) and 25 mg midazolam (Midazolam Hameln, Hameln pharmaceuticals GmbH, Hameln, Germany). A peripheral ear vein was cannulated and the animals were medicated with 20 mg boluses of propofol (PropofolLipuro, B. Braun Melsungen AG, Melsungen, Germany) and 150 μg phentanyl (Fentanyl-Hameln, Hameln pharmaceuticals GmbH, Hameln, Germany) and were then intubated and connected to a respirator (Dräger Oxylog 3000, Drägerwerk AG, Lübeck, Germany). […] Anesthesia was maintained with a continuous infusion of propofol 15–30 mg/kg/h, phentanyl 1.5 μg/kg/h and midazolam 100 μg/kg/h. […] TB4 (supplied by RegeneRx Biopharmaceuticals Inc, Rockville, MD, USA) was suspended in sterile water to a concentration of 4 mg/ml (0.82 mM) and administered 6 mg/kg through a 15 min intravenous infusion 30 min before the start of the operation and 6 h later.
Serial serum samples were collected from two animals in both groups for pharmacokinetic studies of TB4 by EIA. The serum was prepared and analyzed as parallel samples according to the manufacturers’ manual (Thymosin β4 EIA Kit, Immundiagnostik AG, Bensheim, Germany). A coefficient of variation (calculated as: sample SD/sample mean) of less than 50% between parallel samples was accepted for final analysis.

[8] = test system: global myocardial ischemia-reperfusion injury; assay type: in vivo, pig
Protocol: The lung was displaced and the pericardium opened. […] Blood lactate levels were monitored to ensure adequate perfusion. […] After weaning, the animals were decannulated. […] The thoracotomy wound was closed in three layers. […] MRI study was performed at 1.5 T system (Philips GyroscanIntera Nova Dual MR, Philips Medical Systems, Best, The Netherlands) with a phased-array torso coil and a vector cardiographic method for ECG-gating. All acquisitions were obtained during short breath hold periods. Each MRI study consisted of cine imaging of both ventricles for volumetrics and wall motion at rest. Late enhancement (LE) imaging was applied for scar assessment. […] A phase-sensitive inversion recovery T1-TFE pulse sequence was applied for LE imaging 10 min after injecting gadoterate meglumine (Dotarem 279.3 mg/mL, Guerbet, Roissy CdG, France) with a dose 0.3 mmol/kg. The following imaging parameters were used: prospective gating, TR/TE 4.0/1.2 ms, flip angle 15°, acquisition matrix 168 × 256, reconstruction matrix 256 × 256, FOV 320-360 mm, rFOV 100%, 8-15 slices/breath hold, slice thickness 6 mm, and gap 0 mm. TI was optimized individually using a TI-scout sequence. The whole LV was covered by LE images at SA orientation.

[9] = Completion of the 30 h follow-up period; assay type: in vivo, pig; conditions: TB4 treatment group n = 6; one died after weaning from CPB (bradycardia), one 20 h after reperfusion (circulatory failure)
From the text: Ten landrace pigs weighing 29–43 kg were operated on and divided into a TB4 treatment group (n = 6) and a control group (n = 4). All animal experiments were approved by the Laboratory Animal Care & Use Committee of the State Provincial Office of Southern Finland.
as §1

[10] = test system: small mesentery arteries; assay: Artery wire myography, small mesentery arteries; design: species or system pig
From the text: (§2) Eighteen representative segments of small mesentery arteries and coronary arteries (250–350 μm in diameter) from 4 blood-donor pigs were studied by wire myography for contractile responses to TB4 in vitro. Samples were excised rapidly and placed in ice-cold oxygenated Krebs solution. The composition of the Krebs solution was as follows (in mM): 119 NaCl, 4.7 KCl, 25 NaHCO3, 1.2 NaH2PO4, 2.5 CaCl2, 1.2 MgSO4, and 5.5 glucose. Arterial rings (2 mm in length) were mounted using 40 μm wires in a microvessel myograph (Danish Myograph Technologies, Aarhus, Denmark) for isometric tension recordings. After mounting, vessels were equilibrated, normalized and contracted repeatedly with 62 mM potassium chloride until maximal and reproducible contractions were obtained. To examine the contracting effects of TB4, dose-response curves to TB4 (10-8-10-2 M) were constructed and compared to KCl-induced contraction. Relaxation was studied in thromboxane (TXA2) precontracted arterial rings. The precontraction was adjusted to 20–40% of the reference contraction to 62 mM KCl, which after cumulative concentrations of TB4 was added to the organ bath. To evaluate the role of NO on the effects of TB4 induced vasodilation, experiments were repeated in arteries incubated with L-NNA, a NO synthase inhibitor (100 μM, 30 min). Data were collected and analyzed using Powerlab and Chart5 softwares (ADI Instruments, Colorado Springs, CO, USA).

[11] = test system: coronary arteries; assay: Artery wire myography, coronary arteries; design: species or system pig
From the text: as §2

[12] = TB4 0.1 mM and 1 mM in whole blood

CC[C@H](C)[C@H](NC(=O)[C@H](CCC(=O)O)NC(=O)[C@H](C)NC(=O)[C@H](CCSC)NC(=O)[C@H](CC(=O)O)NC(=O)[C@@H]1CCCN1C(=O)[C@H](CCCCN)NC(=O)[C@H](CC(=O)O)NC(=O)[C@H](CO)NC(C)=O)C(=O)N[C@@H](CCC(=O)O)C(=O)N[C@@H](CCCCN)C(=O)N[C@@H](Cc1ccccc1)C(=O)N[C@@H](CC(=O)O)C(=O)N[C@@H](CCCCN)C(=O)N[C@@H](CO)C(=O)N[C@@H](CCCCN)C(=O)N[C@@H](CC(C)C)C(=O)N[C@@H](CCCCN)C(=O)N[C@@H](CCCCN)C(=O)N[C@H](C(=O)N[C@@H](CCC(=O)O)C(=O)N[C@H](C(=O)N[C@@H](CCC(N)=O)C(=O)N[C@@H](CCC(=O)O)C(=O)N[C@@H](CCCCN)C(=O)N[C@@H](CC(N)=O)C(=O)N1CCC[C@H]1C(=O)N[C@@H](CC(C)C)C(=O)N1CCC[C@H]1C(=O)N[C@@H](CO)C(=O)N[C@@H](CCCCN)C(=O)N[C@@H](CCC(=O)O)C(=O)N[C@H](C(=O)N[C@H](C(=O)N[C@@H](CCC(=O)O)C(=O)N[C@@H](CCC(N)=O)C(=O)N[C@@H](CCC(=O)O)C(=O)N[C@@H](CCCCN)C(=O)N[C@@H](CCC(N)=O)C(=O)N[C@@H](C)C(=O)NCC(=O)N[C@@H](CCC(=O)O)C(=O)N[C@@H](CO)C(=O)O)[C@@H](C)CC)[C@@H](C)O)[C@@H](C)O)[C@@H](C)O [TB4, Thymosin beta 4]
solubility in water [1]: water soluble | global myocardial blood flow during rest [2]: 1.92 ± 0.38 mL/g/min | time of maximal tissue concentration in heart [3]: 2 h | blood clotting time [4, 12]: did not have an effect | maximal blood clot fibrinolysis [4, 12]: did not have an effect | maximum clot firmness, FIBTEM ([4]; TB4 0.1 mM in citrated whole blood): 37.3 ± 5.9 mm | maximum clot firmness, FIBTEM ([4]; TB4 1 mM in citrated whole blood): 27.7 ± 4.2 mm | TUNEL-positive apoptotic cells, right ventricle [5]: 0.94 ± 0.33% | cTnT plasma concentration 6 h post-reperfusion ([6]; p = 0.27): 437 ± 291 ng/L | cTnT plasma concentration 24 h post-reperfusion ([6]; p = 0.55): 305 ± 75 ng/L | level at time molar at 0.25 h [7]: 960 nM | level at time molar at 1 h [7]: 1250 nM | gadolinium contrast uptake on late-enhancement scans ([8]; 28 h post-reperfusion, any of the animals): No uptake of gadolinium contrast was observed | valvular abnormalities on cardiac MRI ([8]; pig, in vivo): One animal in the TB4 group had mild tricuspid valve regurgitation | left ventricle ejection fraction ([8]; pig, 28 h post-reperfusion, n = 4, mean ± SD, p = 0.45 vs control): 61.9 ± 10.6% | LVESV ([8]; pig, 28 h post-reperfusion, n = 4, mean ± SD, p = 0.49): 23.3 ± 8.7 mL | LVEDV ([8]; pig, 28 h post-reperfusion, n = 4, mean ± SD, p = 0.58): 60.1 ± 6.8 mL | animals not completing the follow-up period [9]: two animals did not complete the follow-up period | vasodilatation in mesenteric arteries ([10]; TXA2 precontracted arterial rings, cumulative TB4 concentrations): did not, however, induce vasodilatation | contractile response, % of maximum potassium chloride stimulation ([10]; mesenteric arteries, TB4 0.1–1 mM, reference 62 mM KCl, arteries from four animals): 15–30% | influence on vasoconstriction or vasodilation at physiological concentrations ([10]; physiological concentrations of TB4, mesentery and coronary arteries): did not observe any influence | relaxation of coronary arteries ([11]; TXA2 precontracted porcine coronary rings, TB4 alone): modest endothelium-dependent relaxation | relaxation of coronary arteries with nitric oxide synthase inhibitor ([11]; arteries incubated with L-NNA 100 μM, 30 min): abolished | vasoconstriction in coronary arteries ([11]; dose-response to TB4 compared to KCl-induced contraction): nor did it induce vasoconstriction

— paper PMC4853610, “Systemic Dosing of Thymosin Beta 4 before and after Ischemia Does Not Attenuate Global Myocardial Ischemia-Reperfusion Injury in Pigs” (Frontiers in Pharmacology, 2016)
